The source made the active and inactive calls. The calls are words filed in the database; no cut-off is given here. Where a SMILES comes first, the peptide text is derived from it.
Columns and labels:
[1] = test system: HEK293; assay: Activation of COL1a2 transcriptional activity in HEK293 cells by dual-luciferase reporter assay; assay type: functional, cell-based; details: Homo sapiens
[2] = Antioxidant activity assessed as DPPH radical scavenging activity by measuring eradication rate at 80 ug/mL incubated for 30 mins by absorbance based assay relative to control; assay type: functional; details: dose 80.0 µg/ml
[3] = test system: Mus musculus; assay: Protection against UV radiation-stress induced skin damage in Kunming mouse model assessed as repair of broken skin at 20 ug/ml administered topically and measured every 2 days for 10 days; assay type: functional, organism-based; details: dose 20.0 µg/ml, route top, time 10.0 day
[4] = Antioxidant activity assessed as ABTS radical scavenging activity at 80 ug/mL incubated for 10 mins by absorbance based assay; assay type: functional; details: dose 80.0 µg/ml
[5] = Antioxidant activity assessed as ROS scavenging activity; assay type: functional

| SMILES | Activity [1] | Activity [2] | Activity [3] | Activity [4] | Activity [5] |
| --- | --- | --- | --- | --- | --- |
| CC(C)C[C@H](NC(=O)[C@H](Cc1c[nH]c2ccccc12)NC(=O)[C@@H]1CCCN1C(=O)[C@@H]1CCCN1C(=O)[C@H](CC(C)C)NC(=O)[C@@H](N)CC(C)C)C(=O)N[C@@H](CCCNC(=N)N)C(=O)N1CCC[C@H]1C(=O)N[C@@H](CCCCN)C(=O)N[C@@H](CS)C(=O)N[C@@H](CO)C(=O)O (H-LLPPWLRPKCS-OH) | Active |  |  |  |  |
| CC(C)C[C@H](NC(=O)[C@@H](N)C(C)C)C(=O)N[C@@H](CCCCN)C(=O)N[C@@H](CCCCN)C(=O)N[C@@H](CS)C(=O)O (H-VLKKC-OH) | Active | 96.8% | Active | Active | Active |
| CC(C)C[C@H](NC(=O)[C@@H](N)C(C)C)C(=O)N1CCC[C@H]1C(=O)N[C@@H](CCCCN)C(=O)N[C@@H](CS)C(=O)N[C@@H](Cc1c[nH]c2ccccc12)C(=O)O (H-VLPKCW-OH) |  |  |  |  | Active |
| CC(C)C[C@H](NC(=O)[C@H](CCCCN)NC(=O)[C@@H]1CCCN1C(=O)[C@H](CC(C)C)NC(=O)[C@@H](N)C(C)C)C(=O)N[C@@H](CCC(=O)O)C(=O)N[C@@H](CS)C(=O)N[C@H](C(=O)N[C@@H](Cc1c[nH]c2ccccc12)C(=O)O)C(C)C (H-VLPKLECVW-OH) | Active |  |  |  |  |

From ChEMBL document CHEMBL5338806, “Rationally Designed Nonapeptides with Great Skin Photoprotective Effect through Producing Type 1 Collagen and Blocking the mTOR Pathway” (J Med Chem, 2023)
